Source: paper PMC12446542, “Neddylation inhibitor MLN4924 enhances H3K18 lactylation via binding to LDH and downregulates ITGB4 to block metastasis” (The Journal of Biological Chemistry, 2025)

Molecular target: T1, LDHA (Homo sapiens, UniProt P00338)
T1 construct: purified recombinant LDHA protein (CUSABIO, CSB-EP012832HU)
Test: SPR (Biacore 8K, LDHA immobilized on CM5 chip, steady-state analysis); supported by CETSA in SK-BR-3 cells
Assay type: binding
Source text: SPR (Biacore 8K, LDHA immobilized on CM5 chip, steady-state analysis); supported by CETSA in SK-BR-3 cells on LDHA | using purified recombinant LDHA protein and MLN4924.

Kd: 35.5 µM
SMILES: NS(=O)(=O)OC[C@@H]1C[C@@H](n2ccc3c(N[C@H]4CCc5ccccc54)ncnc32)C[C@@H]1O [MLN4924]
